Data published in ChEMBL document CHEMBL5126528, “Recent strategies targeting Embryonic Ectoderm Development (EED) for cancer therapy: Allosteric inhibitors, PPI inhibitors, and PROTACs” (Eur J Med Chem, 2022).
In brackets after ≈: the same amount, converted by molar mass.

Columns and labels:
[1] = test system: KARPAS-422; test: Antiproliferative activity against human KARPAS-422 cells assessed as cell growth inhibition measured after 7 to 10 days by celltitre-glo-luminescent assay; format: functional; conditions: time 7-10 day
[2] = molecular target: T1, Polycomb protein EED (Homo sapiens, UniProt O75530); test: Binding affinity to human N-terminal His-6 tagged EED expressed in Escherichia coli strain […] by SPR analysis
Target sequence in this assay (O75530 whole entry): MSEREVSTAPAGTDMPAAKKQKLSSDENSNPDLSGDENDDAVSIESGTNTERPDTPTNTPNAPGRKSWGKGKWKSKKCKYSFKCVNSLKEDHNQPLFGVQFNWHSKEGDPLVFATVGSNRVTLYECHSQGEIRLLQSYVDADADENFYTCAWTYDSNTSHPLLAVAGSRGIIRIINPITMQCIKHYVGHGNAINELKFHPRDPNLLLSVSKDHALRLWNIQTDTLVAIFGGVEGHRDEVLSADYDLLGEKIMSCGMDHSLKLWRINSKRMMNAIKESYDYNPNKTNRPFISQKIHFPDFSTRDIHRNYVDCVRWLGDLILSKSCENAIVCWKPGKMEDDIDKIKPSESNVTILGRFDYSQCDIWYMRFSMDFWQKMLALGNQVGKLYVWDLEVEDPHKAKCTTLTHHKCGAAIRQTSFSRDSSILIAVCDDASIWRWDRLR

[3] = molecular target: T1, Polycomb protein EED; test: Inhibition of human N-terminal His-6 tagged EED expressed in Escherichia coli strain […] by SPR analysis
Target sequence in this assay (O75530 whole entry): as above

[4] = molecular target: T1, Polycomb protein EED; test: Binding affinity to full length EED (unknown origin) assessed as increase in melting temperature at 50 uM incubated for 30 mins by TSA; conditions: tested as the 2H-labelled form
Target sequence in this assay (O75530 2-441 limits assumed): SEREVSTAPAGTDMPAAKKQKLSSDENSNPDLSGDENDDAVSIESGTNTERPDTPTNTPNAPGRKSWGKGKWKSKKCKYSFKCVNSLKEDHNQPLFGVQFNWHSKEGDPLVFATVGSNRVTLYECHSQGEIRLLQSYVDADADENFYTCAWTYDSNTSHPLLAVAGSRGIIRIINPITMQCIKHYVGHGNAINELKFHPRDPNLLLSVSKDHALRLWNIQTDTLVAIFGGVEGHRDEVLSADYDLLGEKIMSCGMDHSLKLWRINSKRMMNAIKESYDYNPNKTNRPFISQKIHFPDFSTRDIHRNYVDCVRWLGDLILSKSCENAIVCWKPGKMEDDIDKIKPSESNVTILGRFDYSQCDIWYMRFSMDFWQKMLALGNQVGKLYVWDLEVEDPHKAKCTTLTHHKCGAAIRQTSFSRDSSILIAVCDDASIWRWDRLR

[5] = molecular target: T1, Polycomb protein EED; test: Binding affinity to full length EED (unknown origin) assessed as increase in melting temperature at 100 uM incubated for 30 mins by TSA; conditions: tested as the 2H-labelled form
Target sequence in this assay (O75530 2-441 limits assumed): as above

[6] = molecular target: T1, Polycomb protein EED; test: Inhibition of EED (unknown origin)
Target sequence in this assay (O75530 whole entry): as the sequence (O75530 whole entry) above

[7] = test system: KARPAS-422; test: Antiproliferative activity against human KARPAS-422 cells treated for 11 days; format: functional, cell-based; conditions: KARPAS-422, 264 h
[8] = test system: Pfeiffer; test: Antiproliferative activity against human Pfeiffer cells treated for 14 days; format: functional, cell-based; conditions: 336 h
[9] = Binding affinity to EZH2-EED (unknown origin) protein interaction assessed as inhibition constant by FP binding assay; design: species or system Homo sapiens
[10] = Inhibition of EZH2-EED (unknown origin) protein interaction by FP binding assay; design: species or system Homo sapiens
[11] = Inhibition of GST-tagged EZH2/FLAG-tagged EED (unknown origin) protein protein interaction incubated for 1 hr by AlphaLISA method; design: species or system Homo sapiens
[12] = species on record: Homo sapiens; test: Inhibition of GST-tagged EZH2/FLAG-tagged EED (unknown origin) protein protein interaction at 100 uM incubated for 1 hr by AlphaLISA method relative to control
[13] = Inhibition of FITC-labeled EZH2 (39 to 63 residues) (unknown origin)/N-terminal 6x His-tagged human EED protein interaction by incubated for 2 hrs FP-based competitive assay
[14] = Inhibition of PRC2 (unknown origin); design: species or system Homo sapiens
[15] = Solubility of the compound at pH 7.4; format: physicochemical; conditions: buffer
[16] = molecular target: T1, Polycomb protein EED; test: Binding affinity to EED (unknown origin) assessed as dissociation constant
Target sequence in this assay (O75530 whole entry): as above

[17] = Inhibition of PRC2 HMTase activity in human G-401 cells using nucleosome core particles as substrate in presence of activation peptide H3K27me3 (21 to 44 residues)
[18] = Oral bioavailability in CD-1 mouse; format: ADME, organism-based; conditions: in vivo
[19] = molecular target: T1, Polycomb protein EED; test: Inhibition of human EED (76 to 441 residues) expressed in Escherichia coli strain BL21(DE3) by alpha screen assay
Target sequence in this assay (O75530 whole entry): as above

With `Cc1nc(CCC(=O)NCCCCC(=O)N[C@H](C(=O)N2C[C@H](O)C[C@H]2C(=O)NCc2ccc(-c3scnc3C)cc2)C(C)(C)C)ccc1-c1cnc(NCc2c(F)ccc3c2CCO3)n2cnnc12` as the compound, how does the GI50 [1] read?
The GI50 was 57 nM.

And the Kd [2]?
Its Kd is 0.537 nM.

What about the IC50 [3] of the same compound?
The IC50 was 7.76 nM.

Which ΔTm [4] does the source give for `Cc1ncccc1-c1cnc(NCc2c(F)ccc3c2CCO3)n(C)c1=O` here?
The ΔTm was 6 °C.

And the ΔTm [5]?
The ΔTm was 10 °C.

Which IC50 [6] does the source give for `CN1CC=C(c2cnc(NCC3Cc4cc(F)ccc4O3)n3cnnc23)CC1` (stereo not given) here?
The IC50 was < 20 nM.

What about the IC50 [7] of the same compound?
The IC50 was 2.8 nM.

And the IC50 [8]?
Its IC50 is 2 nM.

With `Cc1ncccc1-c1cnc(NCC2Cc3cc(F)ccc3O2)c2nncn12` (stereo not given) as the compound, how does the IC50 [6] read?
The IC50 was < 100 nM.

With `CCCCC1C(=O)N(c2ccccc2)N(c2ccc(O)cc2)C1=O` (stereo not given) [OXYPHENBUTAZONE ANHYDROUS] as the compound, how does the Ki [9] read?
Its Ki is 44500 nM.

What about the IC50 [10] of the same compound?
The IC50 was 229000 nM.

With `CCCCc1ccc(Nc2nnc(SCc3occc3C(=O)O)s2)cc1` as the compound, how does the IC50 [11] read?
The IC50 was 32000 nM.

Which inhibition [12] does the source give for `O=C(CC1S/C(=N\c2ccccc2F)N(Cc2ccc3c(c2)OCO3)C1=O)Nc1ccc(C(=O)O)cc1` (stereo not given) here?
Its inhibition is 49%.

For `Cc1sc(NC(=O)CCCCC(=O)Nc2sc(C)c(C)c2C(N)=O)c(C(N)=O)c1C`, which IC50 [13] is on record?
Its IC50 is 54900 nM.

With `O=C1Nc2ccc(S(=O)(=O)NCCCCCCNS(=O)(=O)c3ccc4c5c(cccc35)C(=O)N4)c3cccc1c23` as the compound, how does the inhibition [12] read?
The inhibition was 84%.

Which IC50 [14] does the source give for `Cc1ncccc1-c1cnc(NCc2c(F)cc(O)c3c2CCO3)n2cnnc12` here?
The IC50 was 15 nM.

And the solubility [15]?
Its solubility is 5 µM (≈ 1.96 µg/mL).

Which Kd [16] does the source give for `Cc1ncccc1-c1cc2c(n3cnnc13)NCc1c(F)ccc3c1[C@H](CO3)CO2` [POCIREDIR] here?
Its Kd is 163 nM.

For `CCS(=O)(=O)N1CC=C(c2cnc(NCC3Cc4cc(F)ccc4O3)n3cnnc23)CC1` (stereo not given), which IC50 [6] is on record?
The IC50 was < 20 nM.

And the IC50 [7]?
The IC50 was 4 nM.

And the IC50 [8]?
Its IC50 is 0.8 nM.

What does the source list for `CS(=O)(=O)c1ccc(-c2cnc(NCc3ccco3)n3cnnc23)cc1`?
IC50 [6]: 20 nM; IC50 [17]: 220 nM; F [18]: 10%

Which Kd [16] does the source give for `Cc1nc(NCc2c(F)ccc3c2CCO3)sc1-c1ccnn1C` here?
Its Kd is 900 nM.

What about the IC50 [19] of the same compound?
Its IC50 is 2100 nM.

Which IC50 [6] does the source give for `CN1CC=C(c2cnc(NCC3Cc4cc(F)ccc4O3)c3nncn23)CC1` (stereo not given) here?
The IC50 was < 100 nM.

With `CC(=O)N1CC=C(c2cnc(NCC3Cc4cc(F)ccc4O3)n3cnnc23)CC1` (stereo not given) as the compound, how does the IC50 [6] read?
The IC50 was < 20 nM.

What about the IC50 [7] of the same compound?
The IC50 was 7 nM.

What about the IC50 [8] of the same compound?
The IC50 was 0.7 nM.

Which Kd [16] does the source give for `Cc1ncccc1-c1sc(NCc2c(F)ccc3c2CCO3)nc1C` here?
The Kd was 3700 nM.

And the IC50 [19]?
Its IC50 is 5600 nM.

With `COC(=O)C1=C(C)NC(C)=C(C(=O)OC)C1c1ccccc1[N+](=O)[O-]` [NIFEDIPINE] as the compound, how does the Ki [9] read?
Its Ki is 66600 nM.

What about the IC50 [10] of the same compound?
The IC50 was 343000 nM.

For `Cc1cc(-c2cnc(NCC3Cc4cc(F)ccc4O3)n3cc(C#N)nc23)n(C)n1` (stereo not given), which IC50 [6] is on record?
The IC50 was < 100 nM.
